The target of one series is T1, human ORL1 receptor (Homo sapiens, UniProt P41146).
T1 construct: purchased PerkinElmer; host or cells: HEK-293 (transfected), membranes
The series is described as follows: ORL1-receptor binding assay. Conditions: [3H]nociceptin, human ORL1 receptor transfected HEK-293 cell membranes; read-out: Ki value with regard to binding affinity for the ORL1 receptor. The procedure: The human ORL1 receptor transfected HEK-293 cell membranes (PerkinElmer) were incubated for 45 min at room temperature with 0.4 nM [^3H]nociceptin, 1.0 mg of wheat germ agglutinin (WGA)-coated SPA beads and various concentrations of test compounds in a final volume of 200 μL of 50 mM HEPES buffer pH 7.4 containing 10 mM MgCl2 and 1 mM EDTA. Non-specific binding (NSB) was determined by the addition of 1 μM unlabeled nociceptin. After the reaction, the assay plate was centrifuged at 1,000 rpm for 1 min and then the radioactivity was measured by WALLAC 1450 MicroBeta Trilux.

For series [1], the target named is T2, HERG type potassium channel (Homo sapiens, UniProt Q12809).
T2 construct: expressed in transfected cells; host or cells: HEK-293 cells expressing HERG; membrane homogenate
T2 sequence (Q12809 whole entry): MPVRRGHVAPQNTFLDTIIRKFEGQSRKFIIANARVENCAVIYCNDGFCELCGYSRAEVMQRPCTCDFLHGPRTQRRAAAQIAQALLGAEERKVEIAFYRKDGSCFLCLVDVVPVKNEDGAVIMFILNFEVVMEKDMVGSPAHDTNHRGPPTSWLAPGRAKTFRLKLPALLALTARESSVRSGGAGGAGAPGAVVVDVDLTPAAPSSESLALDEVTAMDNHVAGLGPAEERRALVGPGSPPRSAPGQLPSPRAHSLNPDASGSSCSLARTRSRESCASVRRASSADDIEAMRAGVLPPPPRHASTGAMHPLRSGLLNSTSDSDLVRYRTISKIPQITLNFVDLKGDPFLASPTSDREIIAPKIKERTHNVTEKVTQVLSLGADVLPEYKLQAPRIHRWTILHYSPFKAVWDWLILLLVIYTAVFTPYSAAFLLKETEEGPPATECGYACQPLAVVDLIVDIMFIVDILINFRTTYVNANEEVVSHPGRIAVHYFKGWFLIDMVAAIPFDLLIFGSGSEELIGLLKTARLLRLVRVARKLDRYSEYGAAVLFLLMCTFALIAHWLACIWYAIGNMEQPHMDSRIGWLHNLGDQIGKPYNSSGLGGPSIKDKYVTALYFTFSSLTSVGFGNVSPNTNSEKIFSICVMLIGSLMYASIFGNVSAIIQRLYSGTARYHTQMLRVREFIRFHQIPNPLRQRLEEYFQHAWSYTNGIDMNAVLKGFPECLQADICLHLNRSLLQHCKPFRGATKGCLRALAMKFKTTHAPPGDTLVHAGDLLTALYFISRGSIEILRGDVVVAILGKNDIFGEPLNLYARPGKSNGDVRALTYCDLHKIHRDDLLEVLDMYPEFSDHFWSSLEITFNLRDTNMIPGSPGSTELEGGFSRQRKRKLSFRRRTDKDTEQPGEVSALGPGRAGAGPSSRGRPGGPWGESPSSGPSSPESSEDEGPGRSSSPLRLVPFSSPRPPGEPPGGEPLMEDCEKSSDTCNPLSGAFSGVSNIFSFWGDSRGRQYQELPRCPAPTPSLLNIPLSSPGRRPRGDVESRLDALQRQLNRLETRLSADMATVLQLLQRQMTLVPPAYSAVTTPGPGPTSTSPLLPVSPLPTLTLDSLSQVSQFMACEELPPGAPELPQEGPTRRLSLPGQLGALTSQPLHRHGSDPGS
The series is classed as binding. The procedure: Cell paste of HEK-293 cells expressing the HERG product can be suspended in 10-fold volume of 50 mM Tris buffer adjusted at pH 7.5 at 25° C. with 2 M HCl containing 1 mM MgCl2, 10 mM KCl. The cells were homogenized using a Polytron homogenizer (at the maximum power for 20 seconds) and centrifuged at 48,000 g for 20 min at 4° C. The pellet was resuspended, homogenized and centrifuged once more in the same manner. The resultant supernatant was discarded and the final pellet was resuspended (10-fold volume of 50 mM Tris buffer) and homogenized at the maximum power for 20 sec. The membrane homogenate was aliquoted and stored at −80° C. until use. Analiquot was used for protein concentration determination using a Protein Assay Rapid Kit and ARVO SX plate reader (Wallac). […] Saturation was determined by incubating 20 μL of [^3H]-dofetilide and 160 μl of membrane homogenates (20-30 μg protein per well) for 60 min at room temperature in the absence or presence of 10 μM dofetilide at final concentrations (20 μL) for total or nonspecific binding, respectively. […] Receptor-bound radioactivity was quantified by liquid scintillation counting using Packard LS counter.
For the competition assay, compounds were diluted in 96 well polypropylene plates as 4-point dilutions in semi-log format. […] Receptor-bound radio activity was quantified by counting Wallac MicroBeta plate counter.

pKi: −log10 of the molar value. Where a name gives a salt, the structure may show the parent alone.

One may read the pKi as −log10 of the Ki, conventionally taken in molar units.

T1 sequence (P41146 whole entry): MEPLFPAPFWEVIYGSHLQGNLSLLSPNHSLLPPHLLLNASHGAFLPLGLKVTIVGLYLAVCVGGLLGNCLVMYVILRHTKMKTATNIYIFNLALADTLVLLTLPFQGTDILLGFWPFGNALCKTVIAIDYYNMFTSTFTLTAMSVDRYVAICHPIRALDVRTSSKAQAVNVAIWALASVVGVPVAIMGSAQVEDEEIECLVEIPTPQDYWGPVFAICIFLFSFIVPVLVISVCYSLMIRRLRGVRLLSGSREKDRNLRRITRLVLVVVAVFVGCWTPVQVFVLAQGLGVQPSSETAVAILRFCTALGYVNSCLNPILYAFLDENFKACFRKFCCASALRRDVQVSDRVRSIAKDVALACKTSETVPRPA

As to `CN(C)C(=O)C(Cc1cscn1)CN1CCC2(CC1)OCc1ccc(F)cc12` (single isomer, unassigned; (-)) [Example 92, (−)-3-(6-FLUORO-1′H,3H-SPIRO[2-BENZOFURAN-1,4′-PIPERIDIN]-1′-YL)-N,N-DIMETHYL-2-(1,3-THIAZOL-4-YLMETHYL)P[…], CITRATE], the negative-log Ki (pKi) at human ORL1 receptor was 8.30.

For the compound `CN(C)C(=O)C(CN1CCC2(CC1)OCc1ccc(F)cc12)Cn1cccn1` (single isomer, unassigned; (-)) [Example 102, (−)-3-(6-FLUORO-1′H,3H-SPIRO[2-BENZOFURAN-1,4′-PIPERIDIN]-1′-YL)-N,N-DIMETHYL-2-(1H-PYRAZOL-1-YLMETHYL)P[…], CITRATE], the pKi at human ORL1 receptor was 7.92.

As to `CN1C(=O)C(CN2CCC3(CCc4ccccc43)CC2)Cc2ccccc21` (stereo not drawn) [Compound (i)], the “activity in the dofetilide binding assay” value in series [1] is recorded as “potent activity”.

The values are drawn from US7354925B2, “Alpha aryl or heteroaryl methyl beta piperidino propanamide compounds as ORL1-receptor antagonists” (Pfizer Inc., priority 2004, dated 2008).
